Results from patent US7785849B2, “Cyclic nucleotide-specific phosphodiesterases from Leishmania and uses thereof” (priority 2003, dated 2010).
Like-named read-outs stand apart in the source and are kept apart here.

Key:
LmPDE-B1 = LmPDE-B1 (Leishmania major, UniProt Q6S997); test: PDE activity assay in yeast lysates, recombinant LmPDE-B1 (3H-cAMP hydrolysis); assay type: biochemical; details: for IC50: read-out: IC50, inhibition of LmPDE-B1 activity
Protocol: (§1) PP5 yeast cells expressing LmPDE-A, LmPDE-B1, and LmPDE-B2, were lysed as described previously (Zoraghi et al. (2001) J. Biol. Chem. 276, 11559-11566). The cells were grown to mid-log to end-log phase in SC-leu medium, collected, resuspended in the original volume of prewarmed YPD medium, and incubated for an additional 3.5 hours at 30° C. to maximize protein expression. The cells were then harvested, washed twice in H2O, pelleted by centrifugation, and stored overnight at −70° C. The cell pellet was thawed on ice and resuspended in ice-cold extraction buffer (50 mM Hepes pH 7.5, 100 mM NaCl, 1× Complete® protease inhibitor cocktail without EDTA (Roche)). Cells were lysed by grinding with glass beads (0.45-0.50 mm) in 2 ml Sarstedt tubes using a FastPrep FP120 cell disrupter (3×45 seconds at setting 4). The lysed cells were centrifuged and glycerol was added to the resulting supernatant to a final concentration of 15% (v/v). Aliquots were snap-frozen in liquid nitrogen and were stored at −70° C.
PDE activity was determined in 50 mM HEPES, pH 7.5, 0.5 mM EDTA, 10 mM MgCl2, and 50 mg/ml BSA in a final assay volume of 100 μl. Each assay contained 50,000 cpm of ^3H-labeled cAMP, with unlabeled cAMP added to adjust the desired total substrate concentration. […] The standard reaction time was set to 15 minutes, and the amount of enzyme was always chosen so that no more than 15% of the substrate was hydrolyzed. Inhibitor studies were done at a cAMP concentration of 1 μM. Inhibitors were dissolved in DMSO, but the final DMSO concentration in the assays never exceeded 1%. Control reactions with DMSO alone were always included. Reactions were stopped by the addition of 25 μl of 0.5 N HCl. For the subsequent dephosphorylation of the AMP, the stopped reactions were neutralized with 20 μl of 1 M Tris base, followed by the addition of 10 μl of alkaline phosphatase (Roche Diagnostics; 1 unit/10 μl). The dephosphorylation reactions were incubated for 15 minutes at 37° C. and were then applied to 1 ml columns of QAE-Sephadex A25 in 30 mM ammonium formiate, pH 6.0. The ^3H-adenosine formed as a reaction product was eluted with 1.6 ml of 30 mM ammonium formiate, pH 6.0 and was collected into 3.5 ml of water-soluble scintillation fluid (Packard Ultima Flo). Assays were performed in triplicate, and data were analyzed using the Graph Pad Prism software package.

LmPDE-B2 = test: PDE activity assay in yeast lysates, recombinant LmPDE-B2 (3H-cAMP hydrolysis); assay type: biochemical, Leishmania major; details: 100 μM inhibitor, 1 μM cAMP
Protocol: as §1
PDE activity was determined in 50 mM HEPES, pH 7.5, 0.5 mM EDTA, 10 mM MgCl2, and 50 mg/ml BSA in a final assay volume of 100 μl. Each assay contained 50,000 cpm of ^3H-labeled cAMP, with unlabeled cAMP added to adjust the desired total substrate concentration. […] Assays were performed in triplicate, and data were analyzed using the Graph Pad Prism software package.

Chain of LmPDE-B1 (Q6S997 entry or part of it): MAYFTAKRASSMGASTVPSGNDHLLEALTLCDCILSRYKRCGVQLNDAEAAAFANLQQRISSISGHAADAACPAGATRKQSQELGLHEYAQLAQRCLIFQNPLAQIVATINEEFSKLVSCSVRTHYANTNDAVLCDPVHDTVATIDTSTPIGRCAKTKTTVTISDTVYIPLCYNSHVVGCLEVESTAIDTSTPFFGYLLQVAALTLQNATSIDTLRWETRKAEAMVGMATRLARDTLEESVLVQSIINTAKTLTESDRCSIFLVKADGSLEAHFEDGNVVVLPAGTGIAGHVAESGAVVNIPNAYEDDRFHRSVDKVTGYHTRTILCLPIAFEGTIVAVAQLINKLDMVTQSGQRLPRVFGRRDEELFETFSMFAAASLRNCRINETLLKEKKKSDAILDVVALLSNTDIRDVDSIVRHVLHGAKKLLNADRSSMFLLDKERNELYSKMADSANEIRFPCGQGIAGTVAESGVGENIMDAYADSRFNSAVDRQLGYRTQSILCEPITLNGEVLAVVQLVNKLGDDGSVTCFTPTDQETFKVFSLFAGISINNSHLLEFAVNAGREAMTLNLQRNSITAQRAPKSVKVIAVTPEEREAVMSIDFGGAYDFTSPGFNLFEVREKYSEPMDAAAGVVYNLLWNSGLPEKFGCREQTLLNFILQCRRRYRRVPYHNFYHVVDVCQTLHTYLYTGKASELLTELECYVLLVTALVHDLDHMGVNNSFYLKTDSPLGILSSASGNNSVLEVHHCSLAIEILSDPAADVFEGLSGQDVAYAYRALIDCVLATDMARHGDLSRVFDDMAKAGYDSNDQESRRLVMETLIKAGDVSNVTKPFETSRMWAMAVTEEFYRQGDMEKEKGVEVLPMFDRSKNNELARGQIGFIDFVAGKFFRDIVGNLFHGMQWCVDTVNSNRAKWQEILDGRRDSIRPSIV

Row | SMILES | effect on rate of hydrolysis of cAMP by LmPDE-B1 (LmPDE-B1; 100-fold excess of cGMP) | sensitivity of LmPDE-B1 activity to PDE inhibitor (LmPDE-B1) | IC50 (LmPDE-B1) [µM] | sensitivity of LmPDE-B2 activity to PDE inhibitor (LmPDE-B2) | IC50 (LmPDE-B1; 1 μM cAMP, yeast lysate) [µM] | sensitivity of LmPDE-B1 activity to PDE inhibitor (LmPDE-B1; 100 μM inhibitor, 1 μM cAMP)
1 | Nc1nc2c(ncn2[C@@H]2O[C@@H]3COP(=O)(O)O[C@H]3[C@H]2O)c(=O)[nH]1 [cGMP, cyclic guanosine mono-phosphate] | did not affect |  |  |  |  | 
2 | OCCN(CCO)c1nc(N2CCCCC2)c2nc(N(CCO)CCO)nc(N3CCCCC3)c2n1 [dipyridamole] |  | partly sensitive | 22.6 | partly sensitive |  | 
3 | COc1cc2c(cc1OC)-c1c/c(=N\c3c(C)cc(C)cc3C)n(C)c(=O)n1CC2 [trequinsin] |  |  |  | partly sensitive | 96.6 | partly sensitive
